# Results from publication PMC7064328 (Environmental Health Perspectives, 2020).
# Legend:
# [1] = system: placenta; assay: Placental histopathology; assay type: in vivo, mouse (CD-1)
# Procedure: Dam livers, kidneys, and placentas were trimmed and embedded by the NIEHS Mouse Embryo Phenotyping Core. Tissues collected at necropsy were fixed in 4% PFA for 72 h and paraffin embedded, and 5-μm sections were prepared and stained with hematoxylin and eosin (H&E). Pathology was evaluated and a pathology review conducted by S.A.E. Diplomate American College of Veterinary Pathologists (DACVP). Pathology reviews were conducted as an informed approach analysis [e.g., nonblinded analysis; see Sills et al. ([2019])]. Select tissue slides were scanned using the AT2 Scanner (Aperio). Images were then captured for publication using the ImageScope software; version 12.3.0.5056 (Aperio). Serum and urine obtained from dams in Block 2 were analyzed using the AU480 clinical chemistry analyzer (Beckman Coulter Inc.). Reagents and calibration standards used to measure alkaline phosphatase (ALP), alanine aminotransferase (ALT), aspartate aminotransferase (AST), blood urea nitrogen (BUN), serum creatinine, urine creatinine, glucose (Glu), total protein (TP), triglyceride (Trig), high-density lipoprotein (HDL), cholesterol (Chol), and albumin (ALB) were purchased from Beckman Coulter Inc. Reagents for sorbitol dehydrogenase (SDH), total bile acid (TBA), and micro-TP were purchased from Sekisui Diagnostics. The reagent used to measure low-density lipoprotein (LDL) was purchased form Diazyme Laboratories.
# Histopathological lesions of evaluated placenta were evaluated using two statistical approaches. The first approach assumed the absence of litter effects and considered each placenta evaluated within a treatment group to be a totally independent observation, regardless of its litter of origin. […] The second approach considered the litter as the biological unit and compared the relative incidence of placental lesions [e.g., percent within normal limits (WNL)] to adjust for differences in the total number of observations across litters within and between treatment groups. […] Both approaches were subjected to simultaneous tests for general linear hypotheses to correct for multiple comparisons using Tukey contrasts in the package multcomp ([Hothorn et al. 2009]).
# [2] = system: maternal liver; assay: Transmission electron microscopy of dam liver; assay type: in vivo, mouse (CD-1); conditions: E17.5
# Source text: Block 2 dam liver portions stored in McDowell and Trump’s fixative ([McDowell and Trump 1976]) were processed using a Leica EM TP processor. Briefly, samples were rinsed with buffer, postfixed in 1% osmium tetroxide in 0.1-M phosphate buffer, rinsed in distilled water, dehydrated, and embedded in Ply/Bed® 812 (Polysciences, Inc.) epoxide resin. Blocks were trimmed, and semithin sections ( ∼0.5μm ) were stained with 1% toluidine blue (Poly-scientific R&D Corp.) O in 1% sodium borate to ascertain areas of interest. Ultrathin sections ( […] ) were cut from areas of interest and placed on 200-mesh copper grids and stained with uranyl acetate and lead citrate, and digital images were captured using an Orius® SC1000 side mount camera (Gatan) attached to a Techani T12 transmission electron microscope (TEM) (FEI Company). In general, peroxisomes were smaller than mitochondria and round with a dark, electron-dense, granular matrix and surrounded by a single membrane. […] Samples were analyzed by R.D.K., Ph.D.
compound,measurement,setting,value
"N.O=C(O)C(F)(OC(F)(F)C(F)(F)C(F)(F)F)C(F)(F)F (stereo not shown) [GenX, ammonium 2,3,3,3-tetrafluoro-2-(heptafluoropropoxy)propanoate]",Early fibrin clot: No.,"[1]; E11.5, 2 mg/kg/d",1
same,Labyrinth atrophy: %,"[1]; E11.5, 2 mg/kg/d",0%
same,Labyrinth atrophy: No.,"[1]; E11.5, 2 mg/kg/d",0
same,Labyrinth congestion: %,"[1]; E11.5, 2 mg/kg/d",0%
same,Labyrinth congestion: No.,"[1]; E11.5, 2 mg/kg/d",0
same,Labyrinth necrosis: %,"[1]; E11.5, 2 mg/kg/d",0%
same,Labyrinth necrosis: No.,"[1]; E11.5, 2 mg/kg/d",0
same,Mean WNL per litter (%),"[1]; E11.5, 2 mg/kg/d",95.6%
same,Mean WNL ± SD per litter,"[1]; E11.5, 2 mg/kg/d",8.2 ± 2.8
same,Mean abnormal per litter (%),"[1]; E11.5, 2 mg/kg/d",4.4%
same,Mean abnormal ± SD per litter,"[1]; E11.5, 2 mg/kg/d",0.4 ± 0.9
same,Other placental lesions: %,"[1]; E11.5, 2 mg/kg/d",2.3%
same,Other placental lesions: No.,"[1]; E11.5, 2 mg/kg/d",1
same,Placental nodule: %,"[1]; E11.5, 2 mg/kg/d",0%
same,Placental nodule: No.,"[1]; E11.5, 2 mg/kg/d",0
same,Placentas WNL: %,"[1]; E11.5, 2 mg/kg/d",95.3%
same,Placentas WNL: No.,"[1]; E11.5, 2 mg/kg/d",41
same,Placentas abnormal: %,"[1]; E11.5, 2 mg/kg/d",4.7%
same,Placentas abnormal: No.,"[1]; E11.5, 2 mg/kg/d",2
same,Early fibrin clot: %,"[1]; E11.5, 10 mg/kg/d",0%
same,Early fibrin clot: No.,"[1]; E11.5, 10 mg/kg/d",0
same,Labyrinth atrophy: %,"[1]; E11.5, 10 mg/kg/d",0%
same,Labyrinth atrophy: No.,"[1]; E11.5, 10 mg/kg/d",0
same,Labyrinth congestion: %,"[1]; E11.5, 10 mg/kg/d",0%
same,Labyrinth congestion: No.,"[1]; E11.5, 10 mg/kg/d",0
same,Labyrinth necrosis: %,"[1]; E11.5, 10 mg/kg/d",0%
same,Labyrinth necrosis: No.,"[1]; E11.5, 10 mg/kg/d",0
same,Mean WNL per litter (%),"[1]; E11.5, 10 mg/kg/d",97.1%
same,Mean WNL ± SD per litter,"[1]; E11.5, 10 mg/kg/d",6.0 ± 3.1
same,Mean abnormal per litter (%),"[1]; E11.5, 10 mg/kg/d",0%
same,Mean abnormal ± SD per litter,"[1]; E11.5, 10 mg/kg/d",0 ± 0.0
same,Other placental lesions: %,"[1]; E11.5, 10 mg/kg/d",0%
same,Other placental lesions: No.,"[1]; E11.5, 10 mg/kg/d",0
same,Placental nodule: %,"[1]; E11.5, 10 mg/kg/d",0%
same,Placental nodule: No.,"[1]; E11.5, 10 mg/kg/d",0
same,Placentas WNL: %,"[1]; E11.5, 10 mg/kg/d",100%
same,Placentas WNL: No.,"[1]; E11.5, 10 mg/kg/d",30
same,Placentas abnormal: %,"[1]; E11.5, 10 mg/kg/d",0.0%
same,Placentas abnormal: No.,"[1]; E11.5, 10 mg/kg/d",0
same,Early fibrin clot: %,"[1]; E17.5, 2 mg/kg/d",3.2%
same,Early fibrin clot: No.,"[1]; E17.5, 2 mg/kg/d",1
same,Labyrinth atrophy: %,"[1]; E17.5, 2 mg/kg/d",48.4%
same,Labyrinth atrophy: No.,"[1]; E17.5, 2 mg/kg/d",15
same,Labyrinth congestion: %,"[1]; E17.5, 2 mg/kg/d",3.2%
same,Labyrinth congestion: No.,"[1]; E17.5, 2 mg/kg/d",1
same,Labyrinth necrosis: %,"[1]; E17.5, 2 mg/kg/d",0%
same,Labyrinth necrosis: No.,"[1]; E17.5, 2 mg/kg/d",0
same,Mean WNL per litter (%),"[1]; E17.5, 2 mg/kg/d",51.7%
same,Mean WNL ± SD per litter,"[1]; E17.5, 2 mg/kg/d",2.6 ± 2.8
same,Mean abnormal per litter (%),"[1]; E17.5, 2 mg/kg/d",48.3%
same,Mean abnormal ± SD per litter,"[1]; E17.5, 2 mg/kg/d",3.6 ± 3.6
same,Other placental lesions: %,"[1]; E17.5, 2 mg/kg/d",0%
same,Other placental lesions: No.,"[1]; E17.5, 2 mg/kg/d",0
same,Placental nodule: %,"[1]; E17.5, 2 mg/kg/d",3.2%
same,Placental nodule: No.,"[1]; E17.5, 2 mg/kg/d",1
same,Placentas WNL: %,"[1]; E17.5, 2 mg/kg/d",41.9%
same,Placentas WNL: No.,"[1]; E17.5, 2 mg/kg/d",13
same,Placentas abnormal: %,"[1]; E17.5, 2 mg/kg/d",58.1%
same,Placentas abnormal: No.,"[1]; E17.5, 2 mg/kg/d",18
same,Early fibrin clot: %,"[1]; E17.5, 10 mg/kg/d",11.4%
same,Early fibrin clot: No.,"[1]; E17.5, 10 mg/kg/d",4
same,Labyrinth atrophy: %,"[1]; E17.5, 10 mg/kg/d",45.7%
same,Labyrinth atrophy: No.,"[1]; E17.5, 10 mg/kg/d",16
same,Labyrinth congestion: %,"[1]; E17.5, 10 mg/kg/d",22.9%
same,Labyrinth congestion: No.,"[1]; E17.5, 10 mg/kg/d",8
same,Labyrinth necrosis: %,"[1]; E17.5, 10 mg/kg/d",2.9%
same,Labyrinth necrosis: No.,"[1]; E17.5, 10 mg/kg/d",1
same,Mean WNL per litter (%),"[1]; E17.5, 10 mg/kg/d",12.0%
same,Mean WNL ± SD per litter,"[1]; E17.5, 10 mg/kg/d",1.2 ± 2.7
same,Mean abnormal per litter (%),"[1]; E17.5, 10 mg/kg/d",88.0%
same,Mean abnormal ± SD per litter,"[1]; E17.5, 10 mg/kg/d",5.8 ± 3.0
same,Other placental lesions: %,"[1]; E17.5, 10 mg/kg/d",0%
same,Other placental lesions: No.,"[1]; E17.5, 10 mg/kg/d",0
same,Placental nodule: %,"[1]; E17.5, 10 mg/kg/d",0%
same,Placental nodule: No.,"[1]; E17.5, 10 mg/kg/d",0
same,Placentas WNL: %,"[1]; E17.5, 10 mg/kg/d",17.1%
same,Placentas WNL: No.,"[1]; E17.5, 10 mg/kg/d",6
same,Placentas abnormal: %,"[1]; E17.5, 10 mg/kg/d",82.9%
same,Placentas abnormal: No.,"[1]; E17.5, 10 mg/kg/d",29
same,Lowest dose tested resulting in adverse placental pathology,[1]; this study,2 mg/kg/d
same,Liver ultrastructure (TEM),[2]; 2 mg/kg/d,abnormal ultrastructure
same,Liver ultrastructure (TEM),[2]; 10 mg/kg/d,abnormal ultrastructure
